From ChEMBL document CHEMBL4339212, “Novel 7-formyl-naphthyridyl-ureas derivatives as potential selective FGFR4 inhibitors: Design, synthesis, and biological activity studies” (Bioorg Med Chem, 2019)
pIC50: −log10 of the molar value.

Key:
SK-HEP1 = assay: Antiproliferative activity against human SKHEP1 cells without FGFR4 gene amplification assessed as inhibition of cell proliferation incubated for 72 hrs by CellTiter-Glo method; format: functional, cell-based; conditions: SK-HEP1, 72 h
[1] = AUC in Sprague-Dawley rat at 5 mg/kg, ig measured after 5 mins to 24 hrs by LC-MS analysis; format: ADME, organism-based; design: dose 5 mg/kg, time 0.083-24 hr, route […]; conditions: in vivo, po
[2] = biological target: Vascular endothelial growth factor receptor 2 (Homo sapiens, UniProt P35968); assay: Inhibition of KDR (unknown origin)
[3] = biological target: Proto-oncogene tyrosine-protein kinase ROS (Homo sapiens, UniProt P08922); assay: Inhibition of ROS (unknown origin)
[4] = biological target: Platelet-derived growth factor receptor alpha (Homo sapiens, UniProt P16234); assay: Inhibition of PDGFRalpha (unknown origin)
[5] = biological target: Platelet-derived growth factor receptor beta (Homo sapiens, UniProt P09619); assay: Inhibition of PDGFRbeta (unknown origin)
[6] = biological target: Epidermal growth factor receptor (Homo sapiens, UniProt P00533); assay: Inhibition of EGFR (unknown origin)
[7] = biological target: Muscle, skeletal receptor tyrosine-protein kinase (Homo sapiens, UniProt O15146); assay: Inhibition of MUSK (unknown origin)
[8] = biological target: Tyrosine-protein kinase JAK2 (Homo sapiens, UniProt O60674); assay: Inhibition of JAK2 (unknown origin)
[9] = biological target: Tyrosine-protein kinase JAK3 (Homo sapiens, UniProt P52333); assay: Inhibition of JAK3 (unknown origin)
Ephrin type-B receptor 1 = Ephrin type-B receptor 1 (Homo sapiens, UniProt P54762); assay: Inhibition of EphB1 (unknown origin)
[10] = biological target: Receptor tyrosine-protein kinase erbB-4 (Homo sapiens, UniProt Q15303); assay: Inhibition of HER4 (unknown origin)
Insulin receptor = Insulin receptor (Homo sapiens, UniProt P06213); assay: Inhibition of INSR (unknown origin)
[11] = biological target: Leukocyte tyrosine kinase receptor (Homo sapiens, UniProt P29376); assay: Inhibition of LTK (unknown origin)
[12] = biological target: Receptor-type tyrosine-protein kinase FLT3 (Homo sapiens, UniProt P36888); assay: Inhibition of FLT3 (unknown origin)
[13] = biological target: Non-receptor tyrosine-protein kinase TYK2 (Homo sapiens, UniProt P29597); assay: Inhibition of TYK2 (unknown origin)
[14] = biological target: Tyrosine-protein kinase JAK1 (Homo sapiens, UniProt P23458); assay: Inhibition of JAK1 (unknown origin)
[15] = biological target: MAP kinase-activated protein kinase 3 (Homo sapiens, UniProt Q16644); assay: Inhibition of MAPKAPK3 (unknown origin)
[16] = biological target: Hepatocyte growth factor receptor (Homo sapiens, UniProt P08581); assay: Inhibition of MET (unknown origin)
[17] = biological target: Proto-oncogene tyrosine-protein kinase receptor Ret (Homo sapiens, UniProt P07949); assay: Inhibition of RET (unknown origin)
[18] = biological target: Tyrosine-protein kinase ZAP-70 (Homo sapiens, UniProt P43403); assay: Inhibition of ZAP70 (unknown origin)
Angiopoietin-1 receptor = Angiopoietin-1 receptor (Homo sapiens, UniProt Q02763); assay: Inhibition of TIE2 (unknown origin)
Focal adhesion kinase 1 = Focal adhesion kinase 1 (Homo sapiens, UniProt Q05397); assay: Inhibition of FAK (unknown origin)
[19] = biological target: Macrophage-stimulating protein receptor (Homo sapiens, UniProt Q04912); assay: Inhibition of RON (unknown origin)
[20] = biological target: ALK tyrosine kinase receptor (Homo sapiens, UniProt Q9UM73); assay: Inhibition of ALK (unknown origin)
[21] = biological target: Insulin-like growth factor 1 receptor (Homo sapiens, UniProt P08069); assay: Inhibition of IGF1R (unknown origin)
[22] = biological target: Vascular endothelial growth factor receptor 1 (Homo sapiens, UniProt P17948); assay: Inhibition of FLT1 (unknown origin)
[23] = biological target: Fibroblast growth factor receptor 2 (Homo sapiens, UniProt P21802); assay: Inhibition of FGFR2 (unknown origin)
Huh-7 [24] = assay: Antitumor activity against human HuH7 cells xenografted in nude BALB/c mouse assessed as inhibition of tumor growth at 10 mg/kg bid for 14 days and measured twice per week relative to untreated control; format: functional; conditions: Huh-7, 336 h, read-out: TGI
Huh-7 [25] = assay: Antitumor activity against human HuH7 cells xenografted in nude BALB/c mouse assessed as inhibition of tumor growth at 30 mg/kg bid for 14 days and measured twice per week relative to untreated control; format: functional; conditions: Huh-7, 336 h, read-out: TGI
Huh-7 [26] = assay: Antitumor activity against human HuH7 cells xenografted in nude BALB/c mouse assessed as inhibition of tumor growth at 100 mg/kg bid for 14 days and measured twice per week relative to untreated control; format: functional; conditions: Huh-7, 336 h, read-out: TGI
Hep 3B2 [27] = assay: Antitumor activity against human Hep3B cells xenografted in nude BALB/c mouse assessed as inhibition of tumor growth at 3 mg/kg bid for 14 days and measured twice per week relative to untreated control; format: functional; conditions: 336 h, read-out: TGI
Hep 3B2 [28] = assay: Antitumor activity against human Hep3B cells xenografted in nude BALB/c mouse assessed as inhibition of tumor growth at 10 mg/kg bid for 14 days and measured twice per week relative to untreated control; format: functional; conditions: 336 h, read-out: TGI
Hep 3B2 [29] = assay: Antitumor activity against human Hep3B cells xenografted in nude BALB/c mouse assessed as inhibition of tumor growth at 30 mg/kg bid for 14 days and measured twice per week relative to untreated control; format: functional; conditions: 336 h, read-out: TGI
[30] = Toxicity in male BALB/c mouse assessed as effect on body weight at 50 to 450 mg/kg/day, ig dosed once daily for 4 weeks followed by rehabilitation for another 28 days; format: organism-based; conditions: in vivo, po, 672 h
[31] = Toxicity in female BALB/c mouse assessed as induction of animal death at 450 mg/kg/day, ig dosed once daily for 4 weeks followed by rehabilitation for another 28 days; format: organism-based; conditions: in vivo, po, 672 h
[32] = Toxicity in male BALB/c mouse assessed as induction of animal death at 450 mg/kg/day, ig dosed once daily for 4 weeks followed by rehabilitation for another 28 days; format: organism-based; conditions: in vivo, po, 672 h
[33] = Toxicity in female BALB/c mouse assessed as effect on clinical pathology parameters at 200 to 2000 mg/kg, ig administered as single dose measured after 14 days; format: organism-based; conditions: in vivo, po, 336 h
[34] = Toxicity in male BALB/c mouse assessed as effect on clinical pathology parameters at 200 to 2000 mg/kg, ig administered as single dose measured after 14 days; format: organism-based; conditions: in vivo, po, 336 h
[35] = Toxicity in male BALB/c mouse at 200 to 2000 mg/kg, ig administered as single dose measured after 14 days; format: organism-based; conditions: in vivo, po
[36] = Toxicity in female BALB/c mouse at 200 to 2000 mg/kg, ig administered as single dose measured after 14 days; format: organism-based; conditions: in vivo, po
[37] = Toxicity in female BALB/c mouse assessed as effect on body weight at 50 to 450 mg/kg/day, ig dosed once daily for 4 weeks followed by rehabilitation for another 28 days; format: organism-based; conditions: in vivo, po, 672 h
Hep 3B2 [38] = assay: cells; conditions: Homo sapiens, Hep3B, 72 h
Huh-7 [39] = assay: cells; conditions: Homo sapiens, Huh-7, 72 h

Insulin receptor, sequence (P06213 28-758 limits assumed): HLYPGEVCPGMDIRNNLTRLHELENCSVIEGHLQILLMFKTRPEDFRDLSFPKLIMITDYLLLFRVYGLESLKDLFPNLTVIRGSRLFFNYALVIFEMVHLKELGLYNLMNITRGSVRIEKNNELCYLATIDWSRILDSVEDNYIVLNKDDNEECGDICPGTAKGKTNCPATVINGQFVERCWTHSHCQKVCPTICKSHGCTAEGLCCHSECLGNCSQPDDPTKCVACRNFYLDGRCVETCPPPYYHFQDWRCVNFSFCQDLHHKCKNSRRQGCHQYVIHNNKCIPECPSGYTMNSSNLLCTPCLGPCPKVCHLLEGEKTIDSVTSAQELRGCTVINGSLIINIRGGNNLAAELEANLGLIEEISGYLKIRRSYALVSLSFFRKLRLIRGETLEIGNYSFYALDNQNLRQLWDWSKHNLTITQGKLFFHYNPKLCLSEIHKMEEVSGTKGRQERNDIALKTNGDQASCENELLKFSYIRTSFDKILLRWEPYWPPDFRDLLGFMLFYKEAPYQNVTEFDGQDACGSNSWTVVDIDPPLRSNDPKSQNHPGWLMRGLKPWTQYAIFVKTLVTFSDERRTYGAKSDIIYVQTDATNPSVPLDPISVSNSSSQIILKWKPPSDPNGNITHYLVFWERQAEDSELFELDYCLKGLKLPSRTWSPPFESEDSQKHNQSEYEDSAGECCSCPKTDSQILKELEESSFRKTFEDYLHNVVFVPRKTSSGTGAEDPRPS
Insulin receptor, sequence (P06213 763-1382 limits assumed): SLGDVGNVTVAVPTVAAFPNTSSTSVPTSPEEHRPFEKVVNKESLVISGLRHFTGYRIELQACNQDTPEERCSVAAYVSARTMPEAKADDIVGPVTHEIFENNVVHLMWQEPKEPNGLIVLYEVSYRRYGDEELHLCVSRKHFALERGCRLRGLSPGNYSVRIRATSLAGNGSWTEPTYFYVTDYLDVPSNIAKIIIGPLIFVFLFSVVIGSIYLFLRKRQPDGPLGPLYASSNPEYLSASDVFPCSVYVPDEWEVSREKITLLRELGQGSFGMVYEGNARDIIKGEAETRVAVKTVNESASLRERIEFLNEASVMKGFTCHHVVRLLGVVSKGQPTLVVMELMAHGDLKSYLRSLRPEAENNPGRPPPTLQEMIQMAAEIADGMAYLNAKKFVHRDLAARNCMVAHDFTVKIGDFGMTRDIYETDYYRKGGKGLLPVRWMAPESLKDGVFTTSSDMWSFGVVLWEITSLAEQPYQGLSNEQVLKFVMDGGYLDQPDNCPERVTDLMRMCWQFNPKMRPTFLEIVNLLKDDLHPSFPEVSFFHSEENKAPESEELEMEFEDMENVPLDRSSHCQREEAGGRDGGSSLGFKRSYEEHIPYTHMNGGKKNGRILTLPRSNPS
MAP kinase-activated protein kinase 3, sequence (Q16644 whole entry): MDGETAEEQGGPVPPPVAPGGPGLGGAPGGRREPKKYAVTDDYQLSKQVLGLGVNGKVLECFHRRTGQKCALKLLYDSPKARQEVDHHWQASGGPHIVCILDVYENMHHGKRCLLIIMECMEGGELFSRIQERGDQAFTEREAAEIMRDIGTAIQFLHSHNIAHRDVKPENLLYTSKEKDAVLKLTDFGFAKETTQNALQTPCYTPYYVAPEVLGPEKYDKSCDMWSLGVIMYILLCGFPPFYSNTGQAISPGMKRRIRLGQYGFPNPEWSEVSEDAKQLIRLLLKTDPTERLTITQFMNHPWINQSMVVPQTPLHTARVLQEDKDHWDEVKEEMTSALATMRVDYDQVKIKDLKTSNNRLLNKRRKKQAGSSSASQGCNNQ
Receptor-type tyrosine-protein kinase FLT3, sequence (P36888 whole entry): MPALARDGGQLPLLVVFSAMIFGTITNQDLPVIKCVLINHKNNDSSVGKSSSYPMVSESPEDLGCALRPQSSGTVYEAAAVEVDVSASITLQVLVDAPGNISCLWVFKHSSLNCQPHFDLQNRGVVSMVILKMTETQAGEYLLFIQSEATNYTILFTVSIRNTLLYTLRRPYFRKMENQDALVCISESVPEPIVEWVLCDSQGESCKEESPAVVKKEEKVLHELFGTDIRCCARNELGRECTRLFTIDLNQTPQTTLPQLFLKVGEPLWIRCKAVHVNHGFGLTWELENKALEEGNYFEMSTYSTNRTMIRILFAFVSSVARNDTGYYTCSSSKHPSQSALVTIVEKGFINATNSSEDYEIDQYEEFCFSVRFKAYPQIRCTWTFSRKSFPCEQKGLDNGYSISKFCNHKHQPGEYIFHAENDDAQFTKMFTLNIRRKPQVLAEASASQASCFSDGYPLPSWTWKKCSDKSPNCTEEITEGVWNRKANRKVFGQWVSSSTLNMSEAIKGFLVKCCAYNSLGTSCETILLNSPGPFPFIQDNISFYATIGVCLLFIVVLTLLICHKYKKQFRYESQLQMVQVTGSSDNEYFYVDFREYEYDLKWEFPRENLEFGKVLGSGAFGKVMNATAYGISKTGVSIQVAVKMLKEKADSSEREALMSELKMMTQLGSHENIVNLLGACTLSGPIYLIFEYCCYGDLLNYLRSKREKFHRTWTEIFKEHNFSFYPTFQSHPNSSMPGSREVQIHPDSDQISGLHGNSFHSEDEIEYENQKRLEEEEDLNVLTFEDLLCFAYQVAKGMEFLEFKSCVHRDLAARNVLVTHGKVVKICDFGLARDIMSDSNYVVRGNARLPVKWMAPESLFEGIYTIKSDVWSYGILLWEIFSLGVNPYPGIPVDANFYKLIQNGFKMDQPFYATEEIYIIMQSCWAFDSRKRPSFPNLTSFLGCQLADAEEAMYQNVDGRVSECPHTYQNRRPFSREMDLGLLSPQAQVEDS
Tyrosine-protein kinase JAK2, sequence (O60674 whole entry): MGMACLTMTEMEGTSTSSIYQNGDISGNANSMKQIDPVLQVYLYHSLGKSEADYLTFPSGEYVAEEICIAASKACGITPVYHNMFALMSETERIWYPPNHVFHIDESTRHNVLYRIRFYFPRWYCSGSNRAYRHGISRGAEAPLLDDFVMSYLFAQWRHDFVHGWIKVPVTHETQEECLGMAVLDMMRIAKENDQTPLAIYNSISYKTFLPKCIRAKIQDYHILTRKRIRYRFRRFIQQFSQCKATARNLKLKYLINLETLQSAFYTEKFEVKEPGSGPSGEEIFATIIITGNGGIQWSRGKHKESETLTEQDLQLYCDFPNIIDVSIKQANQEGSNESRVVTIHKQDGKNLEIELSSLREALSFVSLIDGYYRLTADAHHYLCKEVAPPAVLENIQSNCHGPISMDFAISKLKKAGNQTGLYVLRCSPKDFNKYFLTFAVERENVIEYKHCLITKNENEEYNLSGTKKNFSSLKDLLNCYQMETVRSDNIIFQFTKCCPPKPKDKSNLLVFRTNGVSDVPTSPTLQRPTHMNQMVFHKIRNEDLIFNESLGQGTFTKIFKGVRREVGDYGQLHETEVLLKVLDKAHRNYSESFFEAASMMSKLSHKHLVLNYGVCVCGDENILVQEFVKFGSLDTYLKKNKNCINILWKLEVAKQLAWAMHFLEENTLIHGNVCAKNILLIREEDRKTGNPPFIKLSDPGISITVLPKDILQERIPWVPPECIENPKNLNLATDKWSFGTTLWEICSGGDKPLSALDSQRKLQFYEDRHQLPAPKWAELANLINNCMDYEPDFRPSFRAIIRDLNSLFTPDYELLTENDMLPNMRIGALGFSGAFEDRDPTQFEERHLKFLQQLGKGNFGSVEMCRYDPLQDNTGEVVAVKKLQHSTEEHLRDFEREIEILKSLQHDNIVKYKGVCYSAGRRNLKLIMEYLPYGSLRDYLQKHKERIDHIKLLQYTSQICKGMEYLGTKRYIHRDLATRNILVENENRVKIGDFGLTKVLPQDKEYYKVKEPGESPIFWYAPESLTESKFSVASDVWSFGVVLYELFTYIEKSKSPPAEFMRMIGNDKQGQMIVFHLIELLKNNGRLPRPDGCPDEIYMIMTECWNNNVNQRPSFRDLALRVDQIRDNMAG
Tyrosine-protein kinase JAK3, sequence (P52333 whole entry): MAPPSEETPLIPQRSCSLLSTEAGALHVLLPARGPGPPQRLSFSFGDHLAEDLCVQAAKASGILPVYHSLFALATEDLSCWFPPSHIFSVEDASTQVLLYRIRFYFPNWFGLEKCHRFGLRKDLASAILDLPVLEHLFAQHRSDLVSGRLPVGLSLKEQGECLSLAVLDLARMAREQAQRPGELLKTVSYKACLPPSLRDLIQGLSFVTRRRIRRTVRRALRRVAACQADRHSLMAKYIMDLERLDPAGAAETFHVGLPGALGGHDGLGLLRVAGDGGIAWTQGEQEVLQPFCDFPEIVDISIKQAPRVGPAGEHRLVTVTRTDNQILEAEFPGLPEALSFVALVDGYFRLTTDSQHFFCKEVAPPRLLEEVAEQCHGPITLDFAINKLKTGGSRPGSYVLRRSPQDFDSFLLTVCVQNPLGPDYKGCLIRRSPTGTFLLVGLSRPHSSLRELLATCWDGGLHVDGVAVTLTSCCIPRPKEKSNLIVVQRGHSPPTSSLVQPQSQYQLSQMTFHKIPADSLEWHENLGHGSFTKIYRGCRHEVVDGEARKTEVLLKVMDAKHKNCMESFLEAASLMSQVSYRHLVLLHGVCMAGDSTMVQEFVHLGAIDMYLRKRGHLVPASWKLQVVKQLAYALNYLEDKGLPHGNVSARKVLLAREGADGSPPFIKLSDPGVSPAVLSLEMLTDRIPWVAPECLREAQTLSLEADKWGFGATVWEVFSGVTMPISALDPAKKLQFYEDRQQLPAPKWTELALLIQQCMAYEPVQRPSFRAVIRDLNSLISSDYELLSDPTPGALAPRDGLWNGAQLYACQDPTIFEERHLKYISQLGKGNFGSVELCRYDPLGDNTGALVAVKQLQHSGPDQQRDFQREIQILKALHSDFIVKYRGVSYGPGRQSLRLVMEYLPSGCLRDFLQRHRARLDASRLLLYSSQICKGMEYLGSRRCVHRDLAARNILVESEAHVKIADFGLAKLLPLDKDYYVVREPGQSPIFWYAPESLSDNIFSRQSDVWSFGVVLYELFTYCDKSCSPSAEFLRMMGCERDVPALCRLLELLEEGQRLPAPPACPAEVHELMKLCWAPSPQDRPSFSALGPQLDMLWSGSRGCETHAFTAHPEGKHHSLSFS

Compound: COC[C@@H](C)Nc1cc(NC(=O)N2CCCc3cc(CN4CCCCOC4=O)c(C=O)nc32)ncc1C#N
- pIC50 (SK-HEP1): < 5.00
- AUC [1]: 9460 ng·h/mL
- pIC50 [2]: < 5.00
- pIC50 [3]: < 5.00
- pIC50 [4]: < 5.00
- pIC50 [5]: < 5.00
- pIC50 [6]: < 5.00
- pIC50 [7]: < 5.00
- pIC50 [8]: < 5.00
- pIC50 [9]: < 5.00
- pIC50 (Ephrin type-B receptor 1): < 5.00
- pIC50 [10]: < 5.00
- pIC50 (Insulin receptor): < 5.00
- pIC50 [11]: < 5.00
- pIC50 [12]: < 5.00
- pIC50 [13]: < 5.00
- pIC50 [14]: < 5.00
- pIC50 [15]: < 5.00
- pIC50 [16]: < 5.00
- pIC50 [17]: < 5.00
- pIC50 [18]: < 5.00
- pIC50 (Angiopoietin-1 receptor): < 5.00
- pIC50 (Focal adhesion kinase 1): < 5.00
- pIC50 [19]: < 5.00
- pIC50 [20]: < 5.00
- pIC50 [21]: < 5.00
- pIC50 [22]: < 5.00
- pIC50 [23]: < 5.00
- inhibition in vivo at 10 mg/kg (Huh-7 [24]): 28.1%
- inhibition in vivo at 30 mg/kg (Huh-7 [25]): 62.7%
- inhibition in vivo at 100 mg/kg (Huh-7 [26]): 70.8%
- inhibition in vivo at 3 mg/kg (Hep 3B2 [27]): 69.8%
- inhibition in vivo at 10 mg/kg (Hep 3B2 [28]): 126%
- inhibition in vivo at 30 mg/kg (Hep 3B2 [29]): 165%
- Activity [30]: Non-Toxic
- Activity [31]: Toxic
- Activity [32]: Non-Toxic
- Activity [33]: Non-Toxic
- Activity [34]: Non-Toxic
- NOAEL at 336 h [35]: 2000 mg/kg/day
- NOAEL at 336 h [36]: 2000 mg/kg/day
- Activity [37]: Non-Toxic
- pIC50 (Hep 3B2 [38]): 8.96
- pIC50 (Huh-7 [39]): 8.60
